Source: patent US20090221829A1 (priority 2005, published 2009)
Like-named read-outs stand apart in the source and are kept apart here.

Assays:
[1] = tested on: Candida albicans(KCTC 1940), Aspergillus niger (ATCC 9642) and Saccharomyces cerevisiae; experiment: Relative antifungal activity by agar dilution method (vs Miconazole); type: cell-based;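 further: scores 5 to 7 mean a lower fungicidal concentration than Miconazole so higher is more potent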
Text: Novel compounds represented by the above chemical formula (I), and the relative activities in accordance with the agar dilution method in Sabouraud dextrose agar media, Czapek agar media and Yeast Extract-Peptone-Dextrose agar media for Candida albicans(KCTC 1940), Aspergillus niger (ATCC 9642) and Saccharomyces cerevisiae are described respectively in following Table 1.

Micronucleus test = type: in vivo
various kinds of Candida = experiment: MIC (Minimal Inhibitory Concentration) data; type: cell-based
[2] = tested on: cultured lung cells derived from chinese hamster; experiment: Chromosome aberration test; type: cell-based
[3] = Oral toxicity test (general symptoms, weight change, lethal case); type: in vivo, rats (SD); conditions: for LD50: SD, rat, in vivo, 1000 mg/kg, rats, oral, read-out: Acute toxicity LD50; for general symptom / lethal case / weight change: oral, 1,000 mg/kg, suspended in propylene glycol, SD rats
Procedure: Meanwhile, the toxicity test of the compound in table II of the present invention was performed using […]. The compound was suspended in propylene glycol. The resulting suspension was medicated respectively on 6 female rats and 5 male rats (SD) of which age are 5 weeks, via oral after 12 hours starvation. The general symptoms, weight change and lethal case of the above rats were investigated.
In cases of the tests of the compounds (Compound No. 12, 119, 134, 148, 150)(delivery of 1,000 mg/kg), the general symptom and weight change were normal and the lethal case was not observed.

salmonella typhimurium = experiment: Bacterial reverse mutation test (Ames test); type: cell-based
[4] = target: sterol-24-methyl transferase (Candida albicans, UniProt O74198); type: biochemical; conditions: in vitro, read-out: Relative Activity (IC50 class)
Chain of sterol-24-methyl transferase (O74198 whole entry): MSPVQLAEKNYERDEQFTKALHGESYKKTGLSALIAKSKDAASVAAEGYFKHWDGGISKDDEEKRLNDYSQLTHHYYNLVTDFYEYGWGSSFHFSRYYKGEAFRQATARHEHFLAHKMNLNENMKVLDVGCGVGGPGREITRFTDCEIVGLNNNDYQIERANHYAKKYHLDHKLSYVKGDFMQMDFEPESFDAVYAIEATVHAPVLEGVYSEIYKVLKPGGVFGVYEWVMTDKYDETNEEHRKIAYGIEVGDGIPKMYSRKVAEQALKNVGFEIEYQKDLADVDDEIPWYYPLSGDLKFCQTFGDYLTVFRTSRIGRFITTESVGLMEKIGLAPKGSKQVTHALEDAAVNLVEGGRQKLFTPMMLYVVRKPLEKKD
Text: Moreover, the relative activity for sterol-24-methyl transferase of the above compound in Table 11 is described in Table 13.

[5] = agar dilution method, fungicidal concentration relative to control drug Miconazole (=4)
[6] = cultured lung cells derived from chinese hamster
[7] = antifungal activity relative to Miconazole, agar dilution
[8] = C. albicans ATCC 11651, unit assumed
[9] = C. albicans ATCC 28838, unit assumed
[10] = C. albicans IFO 1385, unit assumed
[11] = C. albicans OY-003, unit assumed
[12] = C. albicans OY-019, unit assumed
[13] = C. krusei (KCTC7273), unit assumed

CCCCCCCCCCCC1=[N+](Cc2ccc(C(C)(C)C)cc2)CCc2cc(NC)c(OC)cc21
Relative Activity [1, 5]: 1 | Genetic toxicity Nucleus test (Micronucleus test; male ICR mice): negative | micronucleus test result (Micronucleus test; male ICR mice): negative | MIC (various kinds of Candida; C. glabrata): 3.125 | MIC (various kinds of Candida; C. glulliermondi): 3.125 | Genetic toxicity Chromosome abmormality test [2, 6]: negative | chromosome aberration test result [2, 6]: negative | LD50 ([3]; female): > 1500 mg/kg | LD50 ([3]; male): > 2500 mg/kg | general symptom [3]: normal | lethal case [3]: not observed | weight change [3]: normal | Genetic toxicity AMES test (salmonella typhimurium): negative | bacterial reverse mutation test (Ames test) result (salmonella typhimurium): negative

CCCCCCCCOc1c(C[n+]2ccc3cc(OC)c(OC)cc3c2CCc2ccc(C(C)(C)C)cc2)cccc1OC [Compound No. 148, 1-(2-(4-t-butylphenyl))ethyl-2-(2-octyloxy)-3-dimethoxyphenyl)methyl-6,7-dimethoxyisoquinolinium chloride]
Relative Activity [1, 7]: 1 | Genetic toxicity Nucleus test (Micronucleus test; male ICR mice): negative | micronucleus test result (Micronucleus test; mouse, in vivo): negative | MIC (various kinds of Candida; [8]): 1.56 µg/mL | MIC (various kinds of Candida; [9]): 1.56 µg/mL | MIC (various kinds of Candida; [10]): 1.56 µg/mL | MIC (various kinds of Candida; [11]): 1.56 µg/mL | MIC (various kinds of Candida; [12]): 1.56 µg/mL | MIC (various kinds of Candida; C. albicans U.K, unit assumed): 1.56 µg/mL | MIC (various kinds of Candida; C. albicnas ATCC 10231, unit assumed): 0.78 µg/mL | MIC (various kinds of Candida; C. glabrata, unit assumed): 3.12 µg/mL | MIC (various kinds of Candida; C. glulliermondi, unit assumed): 1.56 µg/mL | MIC (various kinds of Candida; [13]): 1.56 µg/mL | MIC (various kinds of Candida; C. parapsilosis, unit assumed): 3.12 µg/mL | Genetic toxicity Chromosome abmormality test [2]: negative | chromosome aberration test result [2]: negative | LD50 ([3]; female): > 1200 mg/kg | LD50 ([3]; male): > 1500 mg/kg | general symptom [3]: normal | lethal case [3]: not observed | weight change [3]: normal | Genetic toxicity AMES test (salmonella typhimurium): negative | bacterial reverse mutation test (Ames test) result (salmonella typhimurium): negative

CCCCCCCCCCCC1=[N+](Cc2ccc(NC(=O)OC(C)(C)C)cc2)CCc2cc(OC)c(OC)cc21.[Cl-] [Compound No. 120, 2-(4-t-butylalcoholcarbonylaminophenyl)methyl-3,4-dihydro-6,7-dimethoxy-1-undecylisoquinolinium chloride]
MIC (various kinds of Candida; [8]): 1.56 µg/mL | MIC (various kinds of Candida; [9]): 1.56 µg/mL | MIC (various kinds of Candida; [10]): 3.12 µg/mL | MIC (various kinds of Candida; [11]): 1.56 µg/mL | MIC (various kinds of Candida; [12]): 3.12 µg/mL | MIC (various kinds of Candida; C. albicans U.K, unit assumed): 1.56 µg/mL | MIC (various kinds of Candida; C. glabrata, unit assumed): 6.25 µg/mL | MIC (various kinds of Candida; C. glulliermondi, unit assumed): 3.12 µg/mL | MIC (various kinds of Candida; [13]): 1.56 µg/mL | MIC (various kinds of Candida; C. parapsilosis, unit assumed): 3.12 µg/mL | IC50 [4]: < 5 µM

CCCCCCCCOc1c(C[N+]2=C(CCc3ccc(C(C)(C)C)cc3)c3cc(OC)c(OC)cc3CC2)cccc1OC [Compound No. 134, 1-(2-(4-t-butylphenyl))ethyl-2-(2-octyloxy-3-methoxyphenyl)methyl-3,4-dihydro-6,7-dimethoxy isoquinolinium chloride]
Relative Activity [1, 5]: 1 | Genetic toxicity Nucleus test (Micronucleus test; male ICR mice): negative | micronucleus test result (Micronucleus test; mouse, in vivo): negative | MIC (various kinds of Candida; [8]): 3.12 µg/mL | MIC (various kinds of Candida; [9]): 1.56 µg/mL | MIC (various kinds of Candida; [10]): 3.12 µg/mL | MIC (various kinds of Candida; [11]): 1.56 µg/mL | MIC (various kinds of Candida; [12]): 1.56 µg/mL | MIC (various kinds of Candida; C. albicans U.K, unit assumed): 1.56 µg/mL | MIC (various kinds of Candida; C. glabrata, unit assumed): 3.12 µg/mL | MIC (various kinds of Candida; C. glulliermondi, unit assumed): 1.56 µg/mL | MIC (various kinds of Candida; [13]): 3.12 µg/mL | MIC (various kinds of Candida; C. parapsilosis, unit assumed): 6.25 µg/mL | Genetic toxicity Chromosome abmormality test [2]: negative | chromosome aberration test result [2]: negative | LD50 ([3]; female): > 1000 mg/kg | LD50 ([3]; male): > 1200 mg/kg | general symptom [3]: normal | lethal case [3]: not observed | weight change [3]: normal | Genetic toxicity AMES test (salmonella typhimurium): negative | bacterial reverse mutation test (Ames test) result (salmonella typhimurium): negative

CCCCCCCCCCCC1=[N+](Cc2ccc(C(C)(C)C)cc2)CCc2cc3c(cc21)oc(=O)n3C.[Br-] [Compound No. 115, 7,8-dihydro-1-methyl-6-(4-t-butylphenyl)methyl-5-undecyloxazolo[4,5-g]isoquinolinium-2 (1H)-one bromide]
Relative Activity [1, 5]: 2 | IC50 [4]: 5 to 50 µM

CCCCCCCCCCCC1=[N+](Cc2ccc(N)cc2)CCc2cc(OC)c(OC)cc21.Cl.[Cl-] [Compound No. 121, 3,4-dihydro-6,7-dimethoxy-2-(4-ammoniumphenyl)methyl-1-undecylisoquinolinium dichloride]
Relative Activity [1, 5]: 2 | MIC (various kinds of Candida; [8]): 3.12 µg/mL | MIC (various kinds of Candida; [9]): 0.78 µg/mL | MIC (various kinds of Candida; [10]): 1.56 µg/mL | MIC (various kinds of Candida; [11]): 3.12 µg/mL | MIC (various kinds of Candida; [12]): 3.12 µg/mL | MIC (various kinds of Candida; C. albicans U.K, unit assumed): 3.12 µg/mL | MIC (various kinds of Candida; C. glabrata, unit assumed): 1.56 µg/mL | MIC (various kinds of Candida; C. glulliermondi, unit assumed): 0.78 µg/mL | MIC (various kinds of Candida; [13]): 1.56 µg/mL | MIC (various kinds of Candida; C. parapsilosis, unit assumed): 1.56 µg/mL | IC50 [4]: 5 to 50 µM

COc1cc2cc[n+](Cc3cccc(OC)c3OCc3c(F)cccc3Cl)c(CCc3ccc(C(C)(C)C)cc3)c2cc1OC [Compound No. 150, 1-(2-(4-t-butylphenyl))ethyl-2-(2-(2-chloro-6-fluorobenzyloxy)-3-methoxyphenyl)methyl-6,7-dimethoxyisoquinolinium chloride]
Relative Activity [1, 7]: 1 | Genetic toxicity Nucleus test (Micronucleus test; male ICR mice): negative | micronucleus test result (Micronucleus test; mouse, in vivo): negative | MIC (various kinds of Candida; [8]): 1.56 µg/mL | MIC (various kinds of Candida; [9]): 1.56 µg/mL | MIC (various kinds of Candida; [10]): 6.25 µg/mL | MIC (various kinds of Candida; [11]): 0.78 µg/mL | MIC (various kinds of Candida; [12]): 1.56 µg/mL | MIC (various kinds of Candida; C. albicans U.K, unit assumed): 0.78 µg/mL | MIC (various kinds of Candida; C. glabrata, unit assumed): 12.5 µg/mL | MIC (various kinds of Candida; C. glulliermondi, unit assumed): 1.6 µg/mL | MIC (various kinds of Candida; [13]): 1.56 µg/mL | MIC (various kinds of Candida; C. parapsilosis, unit assumed): 12.5 µg/mL | Genetic toxicity Chromosome abmormality test [2]: negative | chromosome aberration test result [2]: negative | LD50 ([3]; female): > 1500 mg/kg | LD50 ([3]; male): > 2000 mg/kg | general symptom [3]: normal | lethal case [3]: not observed | weight change [3]: normal | Genetic toxicity AMES test (salmonella typhimurium): negative | bacterial reverse mutation test (Ames test) result (salmonella typhimurium): negative

CCCCCCCCCCCC1=[N+](Cc2ccccc2F)CCc2cc(OC)c(OC)cc21.[Cl-] [Compound No. 12, 1-n-undecyl-2-(2-fluorophenyl)methyl-3,4-dihydro-6,7-dimethoxyisoquinolinium chloride]
Relative Activity [1, 5]: 2 | Genetic toxicity Nucleus test (Micronucleus test; male ICR mice): negative | micronucleus test result (Micronucleus test; mouse, in vivo): negative | MIC (various kinds of Candida; [8]): 1.56 µg/mL | MIC (various kinds of Candida; [9]): 1.56 µg/mL | MIC (various kinds of Candida; [10]): 3.12 µg/mL | MIC (various kinds of Candida; [11]): 1.56 µg/mL | MIC (various kinds of Candida; [12]): 3.12 µg/mL | MIC (various kinds of Candida; C. albicans U.K, unit assumed): 1.56 µg/mL | MIC (various kinds of Candida; C. glabrata, unit assumed): 1.56 µg/mL | MIC (various kinds of Candida; C. glulliermondi, unit assumed): 1.56 µg/mL | MIC (various kinds of Candida; [13]): 6.25 µg/mL | MIC (various kinds of Candida; C. parapsilosis, unit assumed): 1.56 µg/mL | Genetic toxicity Chromosome abmormality test [2]: negative | chromosome aberration test result [2]: negative | LD50 ([3]; female): > 1000 mg/kg | LD50 ([3]; male): > 1500 mg/kg | general symptom [3]: normal | lethal case [3]: not observed | weight change [3]: normal | Genetic toxicity AMES test (salmonella typhimurium): negative | bacterial reverse mutation test (Ames test) result (salmonella typhimurium): negative

CCCCCCCCCCCC1=[N+](c2ccc(C(C)(C)C)cc2)CCc2cc(CNC(=O)OCC)ccc21.[Br-] [Compound No. 118, ethyl 3,4-dihydro-2-(4-t-butylphenyl)-1-undecylisoquinolinium-6-ylmethylcabamate bromide]
Relative Activity [1, 5]: 2 | IC50 [4]: 5 to 50 µM

COc1cc2cc[n+](Cc3cccc(OC)c3OCc3c(F)c(F)c(C(F)(F)F)c(F)c3F)c(CCc3ccc(C(C)(C)C)cc3)c2cc1OC.[Cl-] [Compound No. 151, 1-(2-(4-t-butylphenyl))ethyl-2-(2-(2,3,5,6-tetrafluoro-4-trifluoromethylbenzyloxy)-3-methoxyphenyl)methyl-6,7-dimethoxyisoquinolinium chloride]
Relative Activity [1, 7]: 1 | MIC (various kinds of Candida; [8]): 3.12 µg/mL | MIC (various kinds of Candida; [9]): 3.12 µg/mL | MIC (various kinds of Candida; [10]): 6.25 µg/mL | MIC (various kinds of Candida; [11]): 1.56 µg/mL | MIC (various kinds of Candida; [12]): 3.12 µg/mL | MIC (various kinds of Candida; C. albicans U.K, unit assumed): 1.56 µg/mL | MIC (various kinds of Candida; C. glabrata, unit assumed): 3.25 µg/mL | MIC (various kinds of Candida; C. glulliermondi, unit assumed): 1.56 µg/mL | MIC (various kinds of Candida; [13]): 1.56 µg/mL | MIC (various kinds of Candida; C. parapsilosis, unit assumed): 12.5 µg/mL | IC50 [4]: < 5 µM
